Experimental data as given in patent US12653860B2, “Compositions and methods for editing beta-globin for treatment of hemaglobinopathies” (Vertex Pharmaceuticals Incorporated, priority 2019, dated 2026).

Tests used:
Assay type in all cases: cell-based
[1] = tested on: GFP gene encoded in the AAVS1 locus of HEK293 T cells; assay: GFP to BFP reporter assay of HDR repair (BFP fluorescence); conditions: four ssODNs
Method: (§1) The effect of DNA PK inhibition by Nu7441 correction of a DSB by the NHEJ pathway (e.g., introduce an indel at the DSB site) or HDR pathway (e.g., introduce a gene mutation encoded by a homology donor at the DSB site) was assessed using the reporter system described in Example 1. In this case gene-editing was evaluated in HEK293 T cells expressing GFP in the AAVS1 locus. To introduce a gene edit that converts GFP to BFP, cells were electroporated with ribonucleoprotein (RNP) comprised of Cas9 and gRNA1 (GFP target sequence identified by SEQ ID NO: 9; sgRNA spacer sequence identified by SEQ ID NO: 10) or gRNA2 (GFP target sequence identified by SEQ ID NO: 11; sgRNA spacer identified by SEQ ID NO: 12) that targets the GFP gene encoded in the AAVS1 locus. The cells were also transfected with ssODNs that encoded the gene correction necessary to convert GFP to BFP and homology arms complimentary to the sequence upstream and downstream of the target gene cut site. The efficiency of HDR repair was determined by measuring the level of cell BFP fluorescence. The efficiency of cutting (indel information) was monitored by TIDE analysis.
Shown in FIGS. 2A-2B is a comparison of HDR editing efficiency for cells treated with Nu7441, SCR7, or RS-1. Shown in FIG. 2A are cells were electroporated with RNP comprising Cas9 and gRNA1 (GFP target sequence shown in SEQ ID NO: 9; sgRNA spacer sequence identified by SEQ ID NO: 10). 2×10^5 cells were edited with 1 μM Cas9 and 1.5 μM gRNA1. The cells were transfected with four different ssODNs. These included ssODN 1067 (SEQ ID NO: 29) and ssODN 1069 (SEQ ID NO: 31) that are complimentary to the DNA strand containing the PAM sequence and ssODN 1068 (SEQ ID NO: 30) and ssODN 1070 (SEQ ID NO: 32) that are complimentary to the DNA strand not containing the PAM sequence. Cells were edited with 100 μM ssODN. A concentrated stock solution of each inhibitor was prepared in DMSO and diluted to a final concentration of 2.5 μM Nu7441, 1.25 μM SCR7, or 10 μM RS-1. HDR efficiency was compared relative to treatment with DMSO alone or to treatment with RNP-only.
Shown in FIG. 2B are cells were electroporated with RNP comprising Cas9 and gRNA2 (GFP target sequence shown in SEQ ID NO: 11; sgRNA spacer sequence shown in SEQ ID NO: 12). The cells were transfected with four different ssODNs. These included ssODN 1061 (SEQ ID NO: 33) and ssODN 1063 (SEQ ID NO: 35) that are complimentary to the DNA strand containing the PAM sequence and ssODN 1062 (SEQ ID NO: 34) and ssODN 1064 (SEQ ID NO: 36) that are complimentary to the DNA strand not containing the PAM sequence.

[2] = tested on: GSD1a locus in HEK293 T cells; assay: Gene correction by NHEJ repair at GSD1a locus with dsDNA donors; conditions: dsDNA donors 50-0 or 150-0; 2.5 μM Nu7441, 1.25 μM SCR7 or 10 μM RS-1; vs DMSO alone; FIG. 3
Method: The effect of Nu7441 treatment on gene correction by the NHEJ pathway was also evaluated. To do so, the cells were transfected with two different dsDNA donors: 50-0 (SEQ ID NO: 37) or 150-0 (SEQ ID NO: 38). Cells were edited with 1.5 g dsDNA donor. These dsDNA donors, lacking homology arms, introduce a second 3′ splice site into exon 2 at the GSD1a locus when inserted into the cut site induced by the Cas9-guide complex by NHEJ repair. The cells were treated with 2.5 μM Nu7441, 1.25 μM SCR7, or 10 μM RS-1 and gene correction by NHEJ repair was evaluated. […] Treatment with SCR7 or RS-1 had no effect over DMSO alone.

[3] = tested on: GFP gene encoded in the AAVS1 locus of HEK293 T cells; assay: Indel formation by TIDE analysis, GFP to BFP edit; conditions: regardless of ssODN or gRNA; vs DMSO control; FIGS. 2C-2D
Method: as §1
Shown in FIGS. 2C-2D is a measure of indel formation performed by TIDE analysis for the same edits that are described for FIGS. 2A-2B. […] Thus, the DNA PK inhibitor Nu7441 achieves reduced repair of a DSB by the NHEJ pathway when a homology donor is provided.

[4] = gRNA1, 2.5 μM Nu7441, 1.25 μM SCR7 or 10 μM RS-1, vs DMSO alone, FIG. 2A

Compound	HDR efficiency [1, 4]	gene correction by NHEJ repair [2]	indel formation at the DSB site [3]	HDR efficiency ([1]; gRNA2, 2.5 μM Nu7441)
O=C(Nc1ccc(Br)cc1)c1ccc(Br)c(S(=O)(=O)NCc2ccccc2)c1 [RS-1]	no improvement in HDR efficiency	no effect	reduction compared to a DMSO control	–
O=c1[nH]c(=S)[nH]c(N=Cc2ccccc2)c1N=Cc1ccccc1 [SCR7]	no improvement in HDR efficiency	no effect	reduction compared to a DMSO control	–
O=c1cc(N2CCOCC2)oc2c(-c3cccc4c3sc3ccccc34)cccc12 [Nu7441]	improved HDR efficiency	substantial decrease in gene correction	decreased indel formation	improved HDR efficiency
